Tested on: 186277-243-T-J2-PDC complex spheroid viability
Test: Anticancer human tumor 186277-243-T-J2-PDC patient-derived colon adenocarcinoma cell line growth inhibition [GQUAD]
Settings: for IC50: curve of first compound; for viability, T/C: stronger effect = lower value; active = viability on the fitted dose curve at most 10% of control; inactive = the rest
In short: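 Tumor cells were grown as complex spheroids with HUVEC endothelial cells and mesenchymal stem cells as stroma. G-quadruplex stabilizers were combined with targeted agents over half-log dilutions from near the clinical Cmax, or from 10 microM.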

[1] = second compound 0.0316 µM, first compound 0.0316 µM
[2] = second compound 0.0316 µM, first compound 0.1 µM
[3] = second compound 0.0316 µM, first compound 0.316 µM
[4] = second compound 0.0316 µM, first compound 1 µM
[5] = second compound 0.0316 µM, first compound 3.16 µM
[6] = second compound 0.0316 µM, first compound 10 µM
[7] = second compound 0.1 µM, first compound 0.0316 µM
[8] = second compound 0.1 µM, first compound 0.1 µM
[9] = second compound 0.1 µM, first compound 0.316 µM
[10] = second compound 0.1 µM, first compound 1 µM
[11] = second compound 0.1 µM, first compound 3.16 µM
[12] = second compound 0.1 µM, first compound 10 µM
[13] = second compound 0.316 µM, first compound 0.0316 µM
[14] = second compound 0.316 µM, first compound 0.1 µM
[15] = second compound 0.316 µM, first compound 0.316 µM
[16] = second compound 0.316 µM, first compound 1 µM
[17] = second compound 0.316 µM, first compound 3.16 µM
[18] = second compound 0.316 µM, first compound 10 µM
[19] = second compound 1 µM, first compound 0.0316 µM
[20] = second compound 1 µM, first compound 0.1 µM
[21] = second compound 1 µM, first compound 0.316 µM
[22] = second compound 1 µM, first compound 1 µM
[23] = second compound 1 µM, first compound 3.16 µM
[24] = second compound 1 µM, first compound 10 µM
[25] = second compound 3.16 µM, first compound 0.0316 µM
[26] = second compound 3.16 µM, first compound 0.1 µM
[27] = second compound 3.16 µM, first compound 0.316 µM
[28] = second compound 3.16 µM, first compound 1 µM
[29] = second compound 3.16 µM, first compound 3.16 µM
[30] = second compound 3.16 µM, first compound 10 µM
[31] = second compound 10 µM, first compound 0.0316 µM
[32] = second compound 10 µM, first compound 0.1 µM
[33] = second compound 10 µM, first compound 0.316 µM
[34] = second compound 10 µM, first compound 1 µM
[35] = second compound 10 µM, first compound 3.16 µM
[36] = second compound 10 µM, first compound 10 µM
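Note: spheroids exposed to drugs for 7 days.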
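Throughout, for viability, T/C: 100% = DMSO vehicle control viability.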

COc1cc(C2c3cc4c(cc3C(OC3OC5COC(C)OC5C(O)C3O)C3COC(=O)C23)OCO4)cc(OC)c1O (stereo unspecified) + CN(C)c1ccc(Nc2c3ccc(NC(=O)CCN4CCCC4)cc3nc3cc(NC(=O)CCN4CCCC4)ccc23)cc1
1460 nM: IC50 (second compound 10 µM)
757 nM: IC50 (second compound 0.1 µM)
1340 nM: IC50 (second compound 3.16 µM)
inactive: viability, T/C [1] 112% | viability, T/C [2] 99.4% | viability, T/C [3] 74.2% | viability, T/C [4] 38.9% | viability, T/C [5] 35% | viability, T/C [6] 18.6% | viability, T/C [7] 91.5% | viability, T/C [8] 94.5% | viability, T/C [9] 72.3% | viability, T/C [10] 40.4% | viability, T/C [11] 34.6% | viability, T/C [12] 18.6% | viability, T/C [13] 113% | viability, T/C [14] 96.7% | viability, T/C [15] 80.5% | viability, T/C [16] 42.8% | viability, T/C [17] 31.7% | viability, T/C [18] 15.6% | viability, T/C [19] 105% | viability, T/C [20] 107% | viability, T/C [21] 74.6% | viability, T/C [22] 42.9% | viability, T/C [23] 32.9% | viability, T/C [24] 17.5% | viability, T/C [25] 115% | viability, T/C [26] 102% | viability, T/C [27] 81.1% | viability, T/C [28] 49.6% | viability, T/C [29] 39.9% | viability, T/C [30] 16% | viability, T/C [31] 107% | viability, T/C [32] 74.5% | viability, T/C [33] 88.6% | viability, T/C [34] 50.9% | viability, T/C [35] 37.2% | viability, T/C [36] 15.5%
808 nM: IC50 (second compound 1 µM)
915 nM: IC50 (second compound 0.316 µM)
767 nM: IC50 (second compound 0.0316 µM)

CC[C@@]1(O)C(=O)OCc2c1cc1n(c2=O)Cc2cc3c(CN(C)C)c(O)ccc3nc2-1 + Cc1[nH]c2ccc(F)cc2c1-c1nc2c3cccnc3c3ncccc3c2[nH]1
> 316 nM: IC50 (second compound 0.0316 µM) | IC50 (second compound 0.1 µM) | IC50 (second compound 0.316 µM) | IC50 (second compound 1 µM) | IC50 (second compound 3.16 µM) | IC50 (second compound 10 µM)
inactive: viability, T/C (second compound 0.0316 µM, first compound 0.000999 µM) 97% | viability, T/C (second compound 0.0316 µM, first compound 0.00316 µM) 91.6% | viability, T/C (second compound 0.0316 µM, first compound 0.00999 µM) 88.2% | viability, T/C [1] 93.9% | viability, T/C (second compound 0.0316 µM, first compound 0.0999 µM) 68.2% | viability, T/C [3] 51.6% | viability, T/C (second compound 0.1 µM, first compound 0.000999 µM) 111% | viability, T/C (second compound 0.1 µM, first compound 0.00316 µM) 106% | viability, T/C (second compound 0.1 µM, first compound 0.00999 µM) 94.2% | viability, T/C [7] 93.7% | viability, T/C (second compound 0.1 µM, first compound 0.0999 µM) 77.9% | viability, T/C [9] 59.6% | viability, T/C (second compound 0.316 µM, first compound 0.000999 µM) 96.3% | viability, T/C (second compound 0.316 µM, first compound 0.00316 µM) 95% | viability, T/C (second compound 0.316 µM, first compound 0.00999 µM) 92.8% | viability, T/C [13] 89.8% | viability, T/C (second compound 0.316 µM, first compound 0.0999 µM) 78% | viability, T/C [15] 60.7% | viability, T/C (second compound 1 µM, first compound 0.000999 µM) 95.3% | viability, T/C (second compound 1 µM, first compound 0.00316 µM) 101% | viability, T/C (second compound 1 µM, first compound 0.00999 µM) 94.8% | viability, T/C [19] 103% | viability, T/C (second compound 1 µM, first compound 0.0999 µM) 77.7% | viability, T/C [21] 55.7% | viability, T/C (second compound 3.16 µM, first compound 0.000999 µM) 118% | viability, T/C (second compound 3.16 µM, first compound 0.00316 µM) 94.1% | viability, T/C (second compound 3.16 µM, first compound 0.00999 µM) 109% | viability, T/C [25] 92.9% | viability, T/C (second compound 3.16 µM, first compound 0.0999 µM) 67.4% | viability, T/C [27] 57.4% | viability, T/C (second compound 10 µM, first compound 0.000999 µM) 87.9% | viability, T/C (second compound 10 µM, first compound 0.00316 µM) 99.9% | viability, T/C (second compound 10 µM, first compound 0.00999 µM) 86.8% | viability, T/C [31] 87.3% | viability, T/C (second compound 10 µM, first compound 0.0999 µM) 79.8% | viability, T/C [33] 56.1%

COc1ncnc(C2CC2)c1-c1ncc2cnn(Cc3ccc(-c4nc(C(F)(F)F)cn4C(C)C)cc3)c2n1 + Cc1[nH]c2ccc(F)cc2c1-c1nc2c3cccnc3c3ncccc3c2[nH]1
> 10000 nM: IC50 (second compound 0.0316 µM) | IC50 (second compound 0.1 µM) | IC50 (second compound 0.316 µM) | IC50 (second compound 1 µM) | IC50 (second compound 3.16 µM) | IC50 (second compound 10 µM)
inactive: viability, T/C [1] 116% | viability, T/C [2] 91.6% | viability, T/C [3] 95.1% | viability, T/C [4] 84.4% | viability, T/C [5] 111% | viability, T/C [6] 97.4% | viability, T/C [7] 87.5% | viability, T/C [8] 98.7% | viability, T/C [9] 99.8% | viability, T/C [10] 95.2% | viability, T/C [11] 112% | viability, T/C [12] 86.2% | viability, T/C [13] 104% | viability, T/C [14] 95.7% | viability, T/C [15] 94.2% | viability, T/C [16] 111% | viability, T/C [17] 108% | viability, T/C [18] 96% | viability, T/C [19] 92.5% | viability, T/C [20] 105% | viability, T/C [21] 107% | viability, T/C [22] 93.9% | viability, T/C [23] 116% | viability, T/C [24] 104% | viability, T/C [25] 103% | viability, T/C [26] 115% | viability, T/C [27] 97.3% | viability, T/C [28] 102% | viability, T/C [29] 99.9% | viability, T/C [30] 89.9% | viability, T/C [31] 105% | viability, T/C [32] 101% | viability, T/C [33] 99.1% | viability, T/C [34] 94.4% | viability, T/C [35] 113% | viability, T/C [36] 97%
